Laboratory results published in the Kinase Knowledgebase extract (Sharma et al. 2016).

Tests used:
MAPK14 (human) [1] = target: MAPK14 (human) (UniProt Q16539); assay: Inhibition of TNF-alpha Production in LPS Stimulated PBMC
MAPK14 (human) [2] = target: MAPK14 (human) (UniProt Q16539); assay: Inhibition of IL-6 Release in LPS Stimulated Whole Blood Cells
MAPK14 (human) [3] = target: MAPK14 (human) (UniProt Q16539); assay: Inhibition of TNF-alpha Release in LPS Stimulated Whole Blood Cells
MAPK14 (human) [4] = target: MAPK14 (human) (UniProt Q16539); assay: Inhibition of IL-1beta Production in LPS Stimulated PBMC
MAPK14 (human) [5] = target: MAPK14 (human) (UniProt Q16539); assay: Inhibition of IL-1 beta Release in LPS Stimulated Whole Blood Cells
MAPK14 (human) [6] = target: MAPK14 (human) (UniProt Q16539); assay: Inhibition of MAPK14 Kinase Activity

Chain of MAPK14 (human) (Q16539 whole entry, looked up): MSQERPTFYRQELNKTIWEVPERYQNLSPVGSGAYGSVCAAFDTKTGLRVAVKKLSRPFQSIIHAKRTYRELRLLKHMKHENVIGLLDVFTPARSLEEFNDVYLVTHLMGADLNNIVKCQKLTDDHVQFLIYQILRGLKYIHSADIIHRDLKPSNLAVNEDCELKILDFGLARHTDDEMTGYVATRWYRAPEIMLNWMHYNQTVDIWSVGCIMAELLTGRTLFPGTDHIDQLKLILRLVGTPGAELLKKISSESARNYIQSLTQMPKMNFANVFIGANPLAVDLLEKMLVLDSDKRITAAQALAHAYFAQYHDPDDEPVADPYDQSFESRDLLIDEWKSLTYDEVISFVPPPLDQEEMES

Compound	IC50 (MAPK14 (human) [1])	IC50 (MAPK14 (human) [2])	IC50 (MAPK14 (human) [3])	IC50 (MAPK14 (human) [4])	IC50 (MAPK14 (human) [5])	IC50 (MAPK14 (human) [6])
CN(C)C=NC(=O)OCc1ccc(N(C(N)=O)c2c(F)cccc2F)nc1-c1ccc(F)cc1F	50 nM	11000 nM	20000 nM	50 nM	12200 nM	1000 nM
CC(C)[C@H](N)C(=O)OCCNC(=O)OCc1ccc(N(C(N)=O)c2c(F)cccc2F)nc1-c1ccc(F)cc1F	22 nM	83 nM	55 nM	12 nM	140 nM	31 nM
CN(C)C=NC(=O)OCc1ccc(N(C(=O)N=CN(C)C)c2c(F)cccc2F)nc1-c1ccc(F)cc1F		800 nM	4300 nM		2200 nM	5000 nM
